Earlier results, collected in US9700048B2, “Agroformulation comprising copolymer of vinyllactam, N-alkyl acrylamide, and alkyl (meth)acrylate” (BASF SE, priority 2012, dated 2017).
In brackets after ≈: the same amount, converted by molar mass.

Conditions: at 20° C.

**Q.** Which solubility in water does the source give for `Cn1cc(C(=O)Nc2ccccc2-c2cc(F)c(F)c(F)c2)c(C(F)F)n1` [fluxapyroxad] here?
**A.** 3.88 µg/mL (≈ 10.2 µM)
